The term IC50 denotes the concentration at which inhibition is half-maximal.

Active and inactive are the calls of the source. No rule for the calls is given here. Some results are limits rather than exact numbers.

The experiment deals with S. cerevisiae tim10-1 mutant growth, luminescence. Nature of the experiment: tim10-1 yeast growth inhibition potency – luminescence, S. cerevisiae, uHTS hits, dose response (AID 493003).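 Also: yeast growth measured after about 22 hours at 25 °C.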

Regarding `CC1CCN(C(=O)CCc2ccc(Oc3cc([N+](=O)[O-])cc([N+](=O)[O-])c3)cc2)CC1`, the IC50 is 50.1 µM.
The same measure for `CCC(=NCc1ccccc1)c1c(C(F)(F)F)[nH]n(-c2nc3ccccc3s2)c1=O`: > 100 µM (inactive); for `Cc1cccc(Oc2cc(NC(=O)c3ccccc3)cc([N+](=O)[O-])c2)c1`: 20.4 µM.
Turning to `CC(C)C[C@@H](CSc1ccc(Br)cc1)N1CCN(CC(C)C)CCC1=O`, the IC50 is 25.9 µM.
`CCOC(=O)c1cc(-c2cccs2)nc2c1c(C)nn2-c1ccccn1`: the IC50 was 11 µM.
For the compound `O=S(=O)(c1ccc(N2CCC(c3ccc(Cl)cc3)=N2)cc1)N(CCO)CCO`, the IC50 was 20.7 µM.
For the compound `Cc1ccc(F)c([C@H]2C3C=CCC(c4ccccc4)C3C(=O)N2Cc2ccccc2)c1` (stereo not given in full), the half-maximal inhibitory concentration (IC50) is 15.2 µM.
On to `Cn1c(NCCCO)nc2c(c1=O)C1(CCCCC1)Cc1ccccc1-2`, for which the IC50 is 12.3 µM.
As for `Cc1ccc(NC(=O)c2ccc([N+](=O)[O-])o2)c(C)c1`, the IC50 is 15.7 µM.
Consider `O=C(N/N=C/c1ccc[nH]1)c1cc(-c2ccc(Cl)cc2)nc2ccccc12`, for which the IC50 is 10.1 µM.
Take `C[C@H]1C=CC(=O)O[C@H]1c1ccccc1`: the IC50 is 21 µM.
Regarding `Cc1cccc2nc(COc3ccc(Cl)c4cccnc34)cn12`, the IC50 was 44.7 µM.
For the compound `CCOC(=O)N1CCN(C(=O)c2ccc(CSc3ccc(Cl)cc3)cc2)CC1`, the IC50 was 74.1 µM.
On to `N=C(N)c1ccc(/C=C/c2ccc(C(=N)N)cc2O)cc1`, for which the IC50 is 10.6 µM.
Consider `O=C(COC(=O)c1ccccc1C(=O)c1ccccc1)Nc1ccc(SC(F)F)cc1`, for which the IC50 is 72.9 µM.
With `N/C(Cc1cccs1)=N\OC(=O)COc1ccc(Cl)cc1Cl`, the IC50 is 24.7 µM.
As to `Cn1c(/C=C/c2ccc([N+](=O)[O-])o2)nc2ccccc2c1=O`, the IC50 was 7.3 µM.
Next, `O=[N+]([O-])/C(C(Cl)=C(Cl)Cl)=C(/Sc1ccccc1)N1CCCCC1`: 38.7 µM.
Next, `COc1ccc(/C(N)=N/OC(=O)c2ccc3c(c2)OCO3)cc1`: 14.9 µM; `COc1ccccc1N1CCN(C(=O)c2cc3sccc3n2C)CC1`: 34.6 µM; `COc1ccc(N2C(=O)CC(Sc3nc4ccccc4s3)C2=O)cc1` (stereo not given): 32.5 µM.
Consider `COc1ccc(/C=N/n2c(=S)n(C)c3ccccc32)cc1OC`, for which the IC50 is 36.1 µM.
In the case of `Fc1ccc(-c2csc3ncnc(Nc4ccc(N5CCOCC5)cc4)c23)cc1`, the IC50 is 41.2 µM.
For the compound `Cc1ccccc1SCC(=O)Nc1cc(C(F)(F)F)ccc1N1CCOCC1`, the IC50 is 28.4 µM.
As to `COc1cccc(-c2nn(C)c3sc(C(=O)N4CCN(c5ccccn5)CC4)cc23)c1`, the concentration for half-maximal inhibition (IC50) is 46.2 µM.
Regarding `Cc1ccc(NC(=S)Nc2ccc(Cl)c(Cl)c2)c(OC(F)F)c1`, the IC50 is 14 µM.
As to `CN1CCN(c2ccccc2NC(=O)c2ccc(-c3ccc(Cl)c(Cl)c3)o2)CC1`, the IC50 is 15.1 µM.
Consider `NC(=NCCCCCCN=C(N)/N=C(\N)Nc1ccc(Cl)cc1)/N=C(\N)Nc1ccc(Cl)cc1`, for which the IC50 is 12.1 µM.
As for `Cn1c(N2CCOCC2)nc(-c2ccccc2)c1-c1ccccc1`, the IC50 was 22.9 µM.
With `Cc1ccccc1NC(=O)CSc1nc(N)c2c3c(sc2n1)CSC(C)(C)C3`, the IC50 was 36.6 µM.
Take `COc1ccc(C(=O)/C=C/c2ccccc2)c(O)c1`: the IC50 was 34.2 µM.
`Nc1ccccc1Sc1ccc(C(F)(F)F)cc1[N+](=O)[O-]`: the IC50 was 28.9 µM.
Regarding `C=CCc1cccc(CNc2ccc(Br)cc2)c1O`, the IC50 was 21.8 µM.
Consider `Cc1c(C(=O)NC2CCCc3ccccc32)oc2ccccc12` (stereo not given), for which the IC50 is 20.2 µM.
In the case of `CC(C)(C)C(=O)NCCN1C(=O)S/C(=C\c2ccc([N+](=O)[O-])cc2)C1=O`, the IC50 is 32.3 µM.
Take `Cc1oc2c(Cl)c(Cl)c(O)c(CN(C)C)c2c1C(=O)c1ccc(Cl)cc1`: the IC50 was 18.6 µM.
On to `COc1ccc(C(=O)O/N=C(\N)c2ccc(Cl)cc2)cc1`, for which the IC50 is 13.3 µM.
With `Cc1cc(Nc2nc(Cl)c(Cl)cc2Cl)n(-c2ccccc2)n1`, the IC50 was 27.1 µM.
Regarding `CSc1ccc(S(=O)(=O)NCc2ccccc2Cl)cc1`, the IC50 is 22.4 µM.
On to `O=C(NC(=S)NNC(=O)c1ccccc1[N+](=O)[O-])c1ccc(Br)cc1`, for which the IC50 is 10.1 µM.
Regarding `CC(C)C1O/C(=N/C(=O)Nc2ccc(Cl)c(Cl)c2)NC1=O` (stereo not given), the IC50 was 32.3 µM.
Consider `CC(C)c1nnc(NC(=O)CCS(=O)(=O)c2nc(-c3cccs3)cc(C(F)(F)F)n2)s1`, for which the 50% inhibitory concentration (IC50) was 11.9 µM.
As for `Cc1ccc(S(=O)(=O)Nc2ccc(N=Nc3ccc(O)cc3)cc2)cc1`, the IC50 is 20.9 µM.
Next, `O=c1oc2ccccc2c(O)c1/C=C1\C=Nc2ccccc21`: 6.24 µM; `Cc1cc(C)cc(OCCCOc2cccc3cccnc23)c1`: 32.4 µM.
For `COc1ccc(Cn2c(-c3ccc(Br)cc3)c[n+]3ccccc23)cc1`, the IC50 is 37.8 µM.
In the case of `S=C(NCCc1ccccc1)Nc1ccc(Nc2ccccc2)cc1`, the IC50 is 24.7 µM.
For the compound `CC1(CC(=O)N/N=C/c2ccc(OCc3ccc(Cl)cc3Cl)cc2)OCCCO1`, the IC50 is 5.77 µM.
In the case of `O=C(/C=C/c1cccs1)c1cc(Br)ccc1OC(=O)N1CCOCC1`, the IC50 is 36.4 µM.
Turning to `CCCc1cc(-c2nc(-c3ccc(C)cc3)cs2)ccn1`, the IC50 was 49.7 µM.
Next, `O=C(COc1ccc(Cl)cc1Cl)Nc1ccc(S(=O)(=O)NC2=NCCCCC2)cc1`: 24.5 µM; `CNc1nc(-c2ccccn2)nnc1-c1ccccc1`: 29.8 µM.
On to `CCc1ccc2nc3nc(C)cc(C)c3c(N)c2c1`, for which the IC50 was 25.1 µM.
On to `CC(C)c1ccc(S(=O)(=O)Nc2ccc(SC(F)F)cc2)cc1`, for which the IC50 is 45.9 µM.
For `Cc1ccsc1C1Nc2ccccc2-c2nc3ccccc3n21` (stereo not given), the IC50 was 28.5 µM.
Next, `CCCN(Cc1ccccc1)C(=S)Nc1cccc(C(F)(F)F)c1`: 66.1 µM; `O=C1CC(SCc2nc3ccccc3[nH]2)C(=O)N1c1ccc(F)c(Cl)c1` (stereo not given): 32.1 µM; `COc1cc(OC)c(C(=O)O/N=C(\N)c2cccc(C)c2)cc1OC`: 17.7 µM.
The same measure for `Cc1cc(C)cc(OCC(=O)N2N=C(C(F)(F)F)CC2(O)C(C)(C)C)c1` (stereo not given): 77.8 µM.
Regarding `COc1cccc(Nc2ncccc2C(=O)Nc2ccccc2)c1`, the IC50 is 31.7 µM.
For `COc1ccc(NCc2nnc(SCc3ccc(Cl)cc3)n2-c2ccccc2)cc1`, the IC50 was 17.4 µM.
Turning to `COc1ccc2nc(/N=C(\N)NC(=O)Nc3ccccc3)nc(C)c2c1`, the IC50 was 47.3 µM.
Regarding `O=C(c1ccc2nc(N3CCCCC3)sc2c1)N1CCN(c2ccccn2)CC1`, the IC50 was 46.1 µM.
Consider `O=C(CN1CCN(S(=O)(=O)c2ccc(Br)cc2)CC1)N/N=C/c1ccc(Br)s1`, for which the IC50 was 43 µM.
In the case of `O=C(Nc1cc(Sc2ccccn2)cc([N+](=O)[O-])c1)c1cccc(Cl)c1`, the 50% inhibitory concentration (IC50) was 34.9 µM.
With `O=C(NC(=S)Nc1cccc(C(F)(F)F)c1)c1csnn1`, the IC50 was 26 µM.
For `O=C(NNC(=S)Nc1cccc(C(F)(F)F)c1)c1cccc(Cl)c1`, the IC50 was 10 µM.
As for `COc1ccc(Cc2n[nH]c(=S)n2NC(=O)Nc2ccc(Cl)c(Cl)c2)cc1`, the IC50 was 56.5 µM.
Turning to `O=C1CC(N2CCCCCC2)C(=O)N1c1ccc(F)cc1` (stereo not given), the concentration for half-maximal inhibition (IC50) was 13.9 µM.
The same measure for `N=c1c2c(-c3ccccc3)c(-c3ccccc3)n(Cc3ccccc3)c2ncn1CCO`: 23.8 µM.
Next, `COc1ccccc1-c1cc2ccccc2[nH]1`: 46.9 µM.
The same measure for `CSc1ccc(/C=C/C(=O)c2ccc(NC(=O)C(C)C)cc2)cc1`: 20.4 µM; for `O=C(NNC(=S)Nc1ccc(Cl)cc1)c1ccccc1OC(F)F`: 12 µM; for `COC(C/C=C/C(=O)COCc1ccccc1)OC`: 37.2 µM.
As to `CC(C)n1c(-c2ccco2)csc1=Nc1cccnc1`, the IC50 was 43 µM.
As for `Cc1cc(C)n(-c2nnc(NC34CC5CC(CC(C5)C3)C4)nn2)n1`, the IC50 is 46.4 µM.
`COc1ccc(/C=C2\CCc3ccccc3C2=O)cc1Cn1cccn1`: the IC50 is 25.6 µM.
The same measure for `O=[N+]([O-])c1cc(Cl)ccc1N1CCN(c2ccccc2O)CC1`: 32.3 µM; for `O=C(Nc1cccc(C(F)(F)F)c1)N1CCC(c2nc(-c3ccc(F)cc3)no2)CC1`: 74.7 µM; for `Cc1ccc2nc(C)c(C(=O)N/N=C/c3cccc([N+](=O)[O-])c3)cc2c1`: 25.8 µM.
As for `Cc1noc(NS(=O)(=O)c2ccc(NC(=O)Nc3ccc(Cl)c(Cl)c3)cc2)c1C`, the IC50 is 43.1 µM.
Regarding `Cc1ccc2cc3cc(C(=O)NCCCN4CCc5ccccc5C4)oc3nc2c1`, the IC50 is > 100 µM (inactive).
As to `CCCCN1/C(=C/c2ccc3ccccc3[n+]2CC)Sc2ccccc21`, the IC50 is 19.2 µM.
For the compound `O=C(CSCc1ccccc1Cl)NNC(=S)Nc1ccccc1`, the IC50 is 33 µM.
Next, `O=C(O)/C=C/C(=O)c1ccc2c(c1)CCc1ccccc1-2`: 10.9 µM; `Cc1cc([N+](=O)[O-])ccc1-c1ccc(C2Nc3ccccc3C(=O)N2O)o1` (stereo not given): 12.4 µM.
As for `CCc1nn(-c2ccccc2)c(=S)c2ccccc12`, the IC50 is 22.8 µM.
The same measure for `CCOc1ccccc1C(=O)Nc1cc(OC)ccc1OC`: 35.1 µM.
For the compound `Cc1ccc(F)c(NC(=O)c2c(-c3ccccc3)noc2C)c1`, the IC50 is 58.6 µM.
Next, `O=C(OCn1ncc(Br)c(Br)c1=O)c1ccc(F)cc1`: 3.3 µM; `O=C1CS(=O)(=O)N(Cc2cccc(F)c2)c2ccc(Br)cc21`: 5.54 µM.
The same measure for `CCOC(=O)C1CCCN(C2CC(=O)N(c3cccc(C(F)(F)F)c3)C2=O)C1` (stereo not given): 13.7 µM; for `CCN1C(=O)C(CC(=O)Nc2ccc(OC)cc2)N(CCc2ccc(OC)cc2)C1=S` (stereo not given): 32.2 µM.
For the compound `C=CCc1ccc(O)c(-c2ccc(O)c(CC=C)c2)c1`, the half-maximal inhibitory concentration (IC50) is 48.8 µM.
With `O=c1c2ccccc2nc(/C=C/c2ccc([N+](=O)[O-])o2)n1CCCO`, the IC50 was 4.53 µM.
`COc1cc(/C=N/N=C2/C(=O)Nc3ccccc32)cc(OC)c1O`: the IC50 is 30.1 µM.
Consider `Cn1c(-c2ccccc2O)cc2ccccc21`, for which the IC50 is 29.5 µM.
Consider `CCOC(=O)c1c(-c2ccccc2)csc1NC(=S)NC`, for which the IC50 was 44.7 µM.
Consider `COc1ccc(-c2cn3c(C)c(C(=O)N4CCc5ccccc5C4)sc3n2)cc1`, for which the IC50 was 40 µM.
For the compound `O=C(c1cc(COc2ccc(F)cc2Cl)on1)N1CCN(c2cnccn2)CC1`, the IC50 is 11.7 µM.
